Values joined by “and” are separate entries in the source; they are usually repeats but may differ in a detail not shown here. Equal entries are not always repeated. Toxic doses and inconclusive results are not listed. Square brackets hold non-standard residues; d marks the D form. Peptide text beside a SMILES is read from it. * marks the point of attachment. ξ: configuration not given here. ξF = NC(Cc1ccccc1)C(=O)O; Bz = O=C(c1ccccc1)*

In the test the test system is P388 leukemia ip, CD2F1 mice, survival T/C. Kind of test: NCI In Vivo Anticancer Drug Screen. Data for tumor model P388 Leukemia (intraperitoneal) in CD2F1 (CDF1) mice. To be noted: endpoint: median survival time, higher = longer survival. The method in brief: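 Mice carrying the transplanted tumor received test compound or vehicle. Survival was recorded in each group, and the value is the treated-group measurement divided by that of the vehicle-treated control group.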

The mark [1] stands for this setting: dose: 50.0 mg/kg/injection, schedule: Q01DX005 (ip), vehicle: saline.
Setting [2] is: dose: 100.0 mg/kg/injection, schedule: Q01DX005 (ip), vehicle: saline.
The mark [3] stands for this setting: dose: 200.0 mg/kg/injection, schedule: Q01DX005 (ip), vehicle: saline.
[4] abbreviates: dose: 50.0 mg/kg/injection, schedule: Q01DX005 (ip), vehicle: saline with Tween-80.
Setting [5] is: dose: 100.0 mg/kg/injection, schedule: Q01DX005 (ip), vehicle: saline with Tween-80.
[6] abbreviates: dose: 200.0 mg/kg/injection, schedule: Q01DX005 (ip), vehicle: saline with Tween-80.
The mark [7] stands for this setting: dose: 50.0 mg/kg/injection, schedule: Q01DX009 (ip), vehicle: Klucel (hydroxypropylcellulose) (HPC).
[8] abbreviates: dose: 100.0 mg/kg/injection, schedule: Q01DX009 (ip), vehicle: Klucel (hydroxypropylcellulose) (HPC).
The mark [9] stands for this setting: dose: 200.0 mg/kg/injection, schedule: Q01DX009 (ip), vehicle: Klucel (hydroxypropylcellulose) (HPC).
[10] abbreviates: dose: 50.0 mg/kg/injection, schedule: Q01DX009 (ip), vehicle: saline.
The mark [11] stands for this setting: dose: 100.0 mg/kg/injection, schedule: Q01DX009 (ip), vehicle: saline.
[12] abbreviates: dose: 12.5 mg/kg/injection, schedule: Q01DX009 (ip), vehicle: Klucel (hydroxypropylcellulose) (HPC).
The mark [13] stands for this setting: dose: 25.0 mg/kg/injection, schedule: Q01DX009 (ip), vehicle: Klucel (hydroxypropylcellulose) (HPC).

As for `CCCCCCC(O)C[N+](=O)[O-]` (stereo not given), the T/C was 102 % of control (dose: 5.56 mg/kg/injection, schedule: Q01DX009 (ip), vehicle: saline with Tween-80); 110 % of control (dose: 8.33 mg/kg/injection, schedule: Q01DX009 (ip), vehicle: saline with Tween-80); 117 % of control and 124 % of control (dose: 12.5 mg/kg/injection, schedule: Q01DX009 (ip), vehicle: saline with Tween-80); 115 % of control (dose: 18.7 mg/kg/injection, schedule: Q01DX009 (ip), vehicle: saline with Tween-80); 111 % of control (dose: 25.0 mg/kg/injection, schedule: Q01DX009 (ip), vehicle: saline with Tween-80); 120 % of control (dose: 50.0 mg/kg/injection, schedule: Q01DX009 (ip), vehicle: saline with Tween-80).

In the case of `O=C1CN(CCCO)CC(=O)N2Cc3ccccc3CN12`, the T/C reads like this: under setting [1], 94 % of control; under setting [2], 100 % of control; under setting [3], 99 % of control.

`COc1ccc(CCNC(=O)Cc2ccc(OC)c(OCc3ccccc3)c2)cc1OC`: the T/C is 95 % of control (dose: 25.0 mg/kg/injection, schedule: Q01DX009 (ip), vehicle: other); 95 % of control (dose: 50.0 mg/kg/injection, schedule: Q01DX009 (ip), vehicle: other); 89 % of control (dose: 100.0 mg/kg/injection, schedule: Q01DX009 (ip), vehicle: other); 86 % of control (dose: 200.0 mg/kg/injection, schedule: Q01DX009 (ip), vehicle: other); 89 % of control (dose: 400.0 mg/kg/injection, schedule: Q01DX009 (ip), vehicle: other).

On to `CC(Oc1ccc(Cl)cc1Cl)C(=O)NC(Cc1ccccc1)C(=O)O` (stereo not given), for which the T/C is 102 % of control under setting [4], 110 % of control under setting [5] and 102 % of control under setting [6].

With `Cn1c(N)c(C(=O)N2CCN(c3ccccc3)CC2)c(=O)n(C)c1=O`, the T/C under setting [7] is 94 % of control, the T/C under setting [8] is 97 % of control and the T/C under setting [9] was 91 % of control.

Take `COc1ccc(CSC(=S)Nc2ccc(N=Nc3ccccc3)cc2)cc1`: the T/C is 107 % of control under setting [10]; 104 % of control under setting [11]; 119 % of control (dose: 200.0 mg/kg/injection, schedule: Q01DX009 (ip), vehicle: saline).

With `O=C(Nc1ccccc1)c1c(O)[nH]c(=O)[nH]c1=O`, the T/C under setting [5] was 163 % of control and 207 % of control; the T/C under setting [6] was 204 % of control.

Consider `CCC(/C=C/c1ccccc1)=N\Nc1ccc(Cl)c(Cl)c1`, for which the T/C was 104 % of control under setting [4], 96 % of control under setting [5] and 91 % of control under setting [6].

Turning to `O=C(CNC(=O)c1ccccc1)NCC(=O)NC(Cc1ccccc1)C(=O)O` (stereo not drawn) (Bz-Gly-Gly-[ξF]-OH), the T/C by setting is: under setting [4], 96 % of control; under setting [5], 100 % of control.

With `CC1(C)N=C(N)N=C(N)N1c1cccc(Cl)c1Cl`, the T/C runs as follows: (dose: 5.0 mg/kg/injection, schedule: Q01DX009 (ip), vehicle: saline with Tween-80) 100 % of control; (dose: 5.0 mg/kg/injection, schedule: Q04DX003 (ip), vehicle: saline) 95 % of control; (dose: 10.0 mg/kg/injection, schedule: Q01DX009 (ip), vehicle: saline with Tween-80) 108 % of control; (dose: 10.0 mg/kg/injection, schedule: Q04DX003 (ip), vehicle: saline) 95 % of control; (dose: 20.0 mg/kg/injection, schedule: Q01DX009 (ip), vehicle: saline with Tween-80) 121 % of control; (dose: 20.0 mg/kg/injection, schedule: Q04DX003 (ip), vehicle: saline) 116 % of control.

Turning to `Cc1cc(C)c(C#N)c(SSC(Cl)(Cl)Cl)n1`, the T/C by setting is: under setting [4], 96 % of control; under setting [5], 93 % of control; under setting [6], 91 % of control.

As for `C[N+]1(Cc2csc(-c3ccc(Cl)cc3)n2)CCOCC1`, the T/C is, setting by setting: under setting [12], 100 % of control and 106 % of control; under setting [13], 113 % of control and 96 % of control; under setting [7], 98 % of control and 108 % of control.

`COc1ccc(NC(=O)C2C(=O)N(c3ccc(OC)cc3)C(=O)/C2=N/NC(N)=S)cc1` (stereo not given): the T/C was 101 % of control (dose: 12.5 mg/kg/injection, schedule: Q01DX005 (ip), vehicle: saline with Tween-80); 100 % of control (dose: 25.0 mg/kg/injection, schedule: Q01DX005 (ip), vehicle: saline with Tween-80); 100 % of control and 90 % of control under setting [4].

Take `Fc1ccc(CN2COc3c(ccc4cccnc34)C2)c(F)c1`: the T/C is, setting by setting: (dose: 100.0 mg/kg/injection, schedule: Q04DX003 (ip), vehicle: Klucel (hydroxypropylcellulose) (HPC)) 95 % of control; (dose: 200.0 mg/kg/injection, schedule: Q04DX003 (ip), vehicle: Klucel (hydroxypropylcellulose) (HPC)) 112 % of control; (dose: 400.0 mg/kg/injection, schedule: Q04DX003 (ip), vehicle: Klucel (hydroxypropylcellulose) (HPC)) 89 % of control.

Turning to `Nc1ncncc1-c1ccc2ccccc2c1`, the T/C is 95 % of control under setting [7], 92 % of control under setting [8] and 96 % of control under setting [9].

For the compound `O=S(=O)(O)C1=CC(=N\Cl)/C=CC/1=N/Cl`, the T/C is, setting by setting: (dose: 25.0 mg/kg/injection, schedule: Q01DX005 (ip), vehicle: saline + Tween-80 + alcohol) 100 % of control and 113 % of control; (dose: 50.0 mg/kg/injection, schedule: Q01DX005 (ip), vehicle: saline + Tween-80 + alcohol) 107 % of control and 113 % of control and 119 % of control; (dose: 100.0 mg/kg/injection, schedule: Q01DX005 (ip), vehicle: saline + Tween-80 + alcohol) 111 % of control and 117 % of control; (dose: 200.0 mg/kg/injection, schedule: Q01DX005 (ip), vehicle: saline + Tween-80 + alcohol) 116 % of control and 120 % of control.

In the case of `COC(=O)C1(C)Cc2cc(OC(C)=O)c(OC(C)=O)cc2N1` (stereo not given), the T/C reads like this: (dose: 25.0 mg/kg/injection, schedule: Q01DX001 (ip), vehicle: Klucel (hydroxypropylcellulose) (HPC)) 109 % of control; (dose: 50.0 mg/kg/injection, schedule: Q01DX001 (ip), vehicle: Klucel (hydroxypropylcellulose) (HPC)) 100 % of control; (dose: 100.0 mg/kg/injection, schedule: Q01DX001 (ip), vehicle: Klucel (hydroxypropylcellulose) (HPC)) 109 % of control; (dose: 200.0 mg/kg/injection, schedule: Q01DX001 (ip), vehicle: Klucel (hydroxypropylcellulose) (HPC)) 114 % of control.

Regarding `Cc1ccc(/C=C/c2ccc([N+](=O)[O-])cc2)cc1`, the T/C (dose: 50.0 mg/kg/injection, schedule: Q01DX005 (ip), vehicle: Klucel (hydroxypropylcellulose) (HPC)) is 105 % of control and 97 % of control; the T/C (dose: 100.0 mg/kg/injection, schedule: Q01DX005 (ip), vehicle: Klucel (hydroxypropylcellulose) (HPC)) is 90 % of control and 96 % of control; the T/C (dose: 200.0 mg/kg/injection, schedule: Q01DX005 (ip), vehicle: Klucel (hydroxypropylcellulose) (HPC)) is 93 % of control; the T/C (dose: 400.0 mg/kg/injection, schedule: Q01DX005 (ip), vehicle: Klucel (hydroxypropylcellulose) (HPC)) is 102 % of control and 103 % of control.

On to `NNC(=O)C1CC2CCCCC2CC1O` (stereo not given), for which the T/C is 101 % of control (dose: 100.0 mg/kg/injection, schedule: Q04DX002 (ip), vehicle: Klucel (hydroxypropylcellulose) (HPC)); 99 % of control (dose: 200.0 mg/kg/injection, schedule: Q04DX002 (ip), vehicle: Klucel (hydroxypropylcellulose) (HPC)); 108 % of control (dose: 400.0 mg/kg/injection, schedule: Q04DX002 (ip), vehicle: Klucel (hydroxypropylcellulose) (HPC)).

Take `CCN(CC)CCNc1cccc2oc3ccc(O)cc3c(=O)c12`: the T/C under setting [4] was 108 % of control, the T/C under setting [5] was 105 % of control and the T/C under setting [6] was 108 % of control.

For `COc1ccc(OC)c(N=Cc2ccc(C=Nc3cc(OC)ccc3OC)cc2)c1`, the T/C under setting [10] was 101 % of control and the T/C under setting [11] was 101 % of control.

Take `CCOC(=O)NC(C#N)=C(Cl)Cl`: the T/C reads like this: (dose: 6.25 mg/kg/injection, schedule: Q01DX009 (ip), vehicle: Klucel (hydroxypropylcellulose) (HPC)) 100 % of control; under setting [12], 100 % of control; under setting [13], 101 % of control.

Consider `CN/N=C(/C)C(=O)O`, for which the T/C is 106 % of control under setting [1], 99 % of control under setting [2] and 99 % of control under setting [3].

For the compound `CCOC(=O)Nc1cc2c(c(N)n1)N=C(c1ccccc1)C(C)N2` (stereo not given), the T/C is, setting by setting: (dose: 0.5 mg/kg/injection, schedule: Q01DX005 (ip), vehicle: saline) 123 % of control; (dose: 0.75 mg/kg/injection, schedule: Q01DX005 (ip), vehicle: saline) 121 % of control; (dose: 1.0 mg/kg/injection, schedule: Q01DX005 (ip), vehicle: saline) 171 % of control.

These data come from PubChem BioAssay AID330 (DTP/NCI, 2004).
